Patent US20260284016A1, “COMBINATIONS AND METHODS FOR ENHANCING CHECKPOINT INHIBITOR THERAPIES IN CANCER TREATMENT” (PURDUE RESEARCH FOUNDATION, priority 2004, published 2026)

How the values were obtained:
[1] = test system: peripheral blood mono nuclear cells (PBMCs); experiment: IL-6 in PBMC culture supernatant by ELISA; assay type: cell-based; settings: 24 hours
Protocol: To evaluate the efficacy of TLR-7 agonists, Compound 1 (TLR7-TA), Compound 2 (TLR7-1B) and Compound 3 (TLR7-1C) were treated with peripheral blood mono nuclear cells (PBMCs) for 24 hours. TLR7-1 was used as control. Cell culture supernatant was isolated and tested for IL-6 using enzyme-linked immunosorbent assay (ELISA) (FIG. 22).

[2] = test system: human primary monocyte-derived M2-macrophages; experiment: IL-6 and CXCL-10 induction in monocyte-derived M2-macrophages; assay type: cell-based; settings: 48 hours

Nc1nc2ncc(CNc3ccc(C(=O)NC(CCC(=O)N[C@@H](CSSCCOC(=O)OCC4CCCN(CCNc5ccc(Cn6c(=O)[nH]c7c(N)nc(C(F)(F)F)cc76)cn5)C4)C(=O)O)C(=O)O)cc3)nc2c(=O)[nH]1 (stereo partly shown) [Compound 3]
IL-6 in culture supernatant [1]: increased expression of IL-6
CXCL-10 induction compared to parent compound TLR7-1 [2]: more efficiently
IL-6 induction compared to parent compound TLR7-1 [2]: more efficiently
macrophage polarization (M1 markers IL-6, CXCL10) [2]: polarize the M2 macrophages to M1 macrophages
